Patent publication US8293744B2, “Heterocyclic fused cinnoline M1 receptor positive allosteric modulators” (Merck Sharp & Dohme Corp., priority 2009, dated 2012)

Target: T1, acetylcholine muscarinic M1 receptor (Homo sapiens, UniProt P11229)
T1 construct: expressed in transfected cells; host or cells: CHOnfat (CHO cells; also called CHOK1/hM1)
T1 sequence (P11229 1-460): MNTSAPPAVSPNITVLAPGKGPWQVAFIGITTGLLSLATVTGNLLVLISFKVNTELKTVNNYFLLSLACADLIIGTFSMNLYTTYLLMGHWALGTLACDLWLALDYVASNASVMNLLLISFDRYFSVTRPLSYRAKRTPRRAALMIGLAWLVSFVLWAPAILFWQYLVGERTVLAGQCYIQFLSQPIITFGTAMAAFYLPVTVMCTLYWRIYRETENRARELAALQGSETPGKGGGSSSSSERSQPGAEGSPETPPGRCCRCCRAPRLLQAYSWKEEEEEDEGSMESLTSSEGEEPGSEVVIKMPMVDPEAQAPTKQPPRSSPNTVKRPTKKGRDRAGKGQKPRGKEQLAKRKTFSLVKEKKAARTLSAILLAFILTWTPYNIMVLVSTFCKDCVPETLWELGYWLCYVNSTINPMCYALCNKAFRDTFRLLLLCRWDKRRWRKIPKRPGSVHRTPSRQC
Test: muscarinic FLIPR assay: potentiation of acetylcholine (EC20)-stimulated intracellular Ca2+ in CHOnfat/hM1 cells
Format: cell-based
Conditions: 4 min preincubation, then EC20 acetylcholine (3 nM final), read-out: IP Value (inflection point)
Method: The assay studies the effect of one or several concentrations of test compounds on basal or acetylcholine-stimulated Ca^2+ levels using FLIPR.
Compounds are prepared and subjected to a preincubation period of 4 min. Thereafter, a single EC20 concentration of acetylcholine is added to each well (3 nM final). The intracellular Ca^2+ level of each sample is measured and compared to an acetylcholine control to determine any modulatory activity
Cells: CHOnfat/hM1, hM2, hM3 or hM4 cells are plated 24 hr before the assay at a density of 18,000 cells/well (100 μL) in a 384 well plate. CHOnfat/hM1 and CHOnfat/hM3 Growth Medium: 90% DMEM (Hi Glucose); 10% HI FBS; 2 mM L-glutamine; 0.1 mM NEAA; Pen-Strep; and 1 mg/ml Geneticin, are added. For M2Gqi5CHOnfat and M4Gqi5CHOnfat cells, an additional 600 ug/ml hygromycin is added.
Equipment: 384 well plate, 120 μL addition plate; 96-well Whatman 2 ml Uniplate Incubator, 37° C., 5% CO2; Skatron EMBLA-384 Plate Washer; Multimek Pipetting System; Genesis Freedom 200 System; Mosquito System; Temo Nanolitre Pipetting System; and FLIPR^384 Fluorometric Imaging Plate Reader System are used.
Buffers. Assay Buffer: Hanks Balanced Salt Solution, with 20 mM Hepes, 2.5 mM Probenecid (Sigma P-8761) first dissolved in 1 N NaOH, 1% Bovine Serum Albumin (Sigma A-9647). Dye Loading Buffer: Assay Buffer plus 1% Fetal Bovine Serum and Fluo-4AM/Pluronic Acid Mixture. 2 mM Fluo-4AM ester stock in DMSO (Molecular Probes F-14202) Concentration of 2 μM in buffer for a final concentration of 1 μM in Assay. 20% Pluronic Acid Solution stock, with concentration of 0.04% in Buffer, 0.02% in Assay.
65 μL of 2 mM Fluo-4AM are mixed with 130 μL of 20% Pluronic Acid. The resulting solution and 650 μL FBS is added to the assay buffer for a total volume of 65 mL. Positive Controls; 4-Br-A23187: 10 mM in DMSO; final concentration 10 μM. Acetylcholine: 10 mM in water, working stock at both 20 μM and 30 μM in assay buffer, final concentration of 10 μM. This is used to check the maximum stimulation of the CHOK1/hM1 cells. 20 μM (2×) acetylcholine is added in the preincubation part of the assay, and the 30 μM (3×) stock is added in the second part. (EC20)Acetylcholine; 10 mM in water, working stock of 9 nM (3×), and final concentration in assay is 3 nM. This is used after the preincubation with test compounds. Addition of the EC20 Acetylcholine to each well with a test compound will ascertain any modulator activity. 24 wells contain 3 nM Acetylcholine alone as a control.
Screening Plate: Compounds are titrated in 96-well plates (columns 2-11), 100% DMSO, started at a concentration of 15 mM (150× stock concentration), and 3-fold serial dilutions using Genesis Freedom 200 System. Four 96-well plates are combined into a 384-well plate using Mosquito Nanolitre Pipetting System by transferring 1 μl of serial diluted compounds to each well, and 1 mM acetylcholine (100× stock concentration) were added as a control. Using Temo, 49 μl assay buffer is added to each well of the 384-well plate right before assay.
In a 96-well Whatman 2 ml Uniplate, 9 nM Acetylcholine (3×) is pipetted into wells corresponding to the screening compounds, and into control wells. The 30 μM acetylcholine control (3×) is added into control wells, and the 3× agonist plate is transferred into a 384 well plate.
Cells are washed three times with 100 μL of buffer, leaving 30 μL of buffer in each well. Using Multimek, 30 μL of Dye Loading Buffer is added into each well and incubated at 37° C., 5% CO2 for up to one hr.
After 60 min, the cells are washed three times with 100 μL of buffer, leaving 30 μL of buffer in each well. The cell plate, screening plate, and agonist addition plates are placed on the platform in the FLIPR and the door closed. A signal test to check background fluorescence and basal fluorescence signal is performed. Laser intensity is adjusted if necessary. […]

| Structure (SMILES) | EC50 [µM] |
| --- | --- |
| Cc1ccc(-c2ccc(Cn3nc4c(=O)n([C@@H]5CCCC[C@H]5O)nc-4c4cccnc43)cn2)cn1 (racemic) [Example 8, (±)-2-(trans-2-Hydroxycyclohexyl)-5-[(6′-methyl-2,3′-bipyridin-5-yl)methyl]-2,5-dihydro-3H-pyrazolo[4,3-c]pyrido[3,2-e]pyridazin-3-one] | 0.14 |
| Cc1ccc(-c2ccc(Cn3nc4c(=O)n(C5CCCOC5)nc-4c4cccnc43)cn2)cn1 (racemic) [Example 9, (±)-5-[(6′-Methyl-2,3′-bipyridin-5-yl)methyl]-2-(tetrahydro-2H-pyran-3-yl)-2,5-dihydro-3H-pyrazolo[4,3-c]pyrido[3,2-e]pyridazin-3-one] | 1.16 |
| O=c1c2nn(Cc3ccc(-n4cccn4)cc3)c3ncccc3c-2nn1C1CCCOC1 (racemic) [Example 10, (±)-5-{[4-(1H-Pyrazol-1-yl)phenyl]methyl}-2-(tetrahydro-2H-pyran-3-yl)-2,5-dihydro-3H-pyrazolo[4,3-c]pyrido[3,2-e]pyridazin-3-one] | 0.438 |
| Cc1ccc(-c2ccc(Cn3nc4c(=O)n(C5CCCOC5)nc-4c4cccnc43)cc2)cn1 (racemic) [Example 11, (±)-5-{[4-(6-Methylpyridin-3-yl)phenyl]methyl}-2-(tetrahydro-2H-pyran-3-yl)-2,5-dihydro-3H-pyrazolo[4,3-c]pyrido[3,2-e]pyridazin-3-one] | 0.37 |
| O=c1c2nn(Cc3ccc(-c4cscn4)cc3)c3ncccc3c-2nn1C1CCCOC1 (racemic) [Example 31, (±)-2-(Tetrahydro-2H-pyran-3-yl)-5-{[4-(1,3-thiazol-4-yl)phenyl]methyl}-2,5-dihydro-3H-pyrazolo[4,3-c]pyrido[3,2-e]pyridazin-3-one] | 0.295 |
| O=c1c2nn(Cc3ccc(-c4ccc(O)nc4)cc3)c3ncccc3c-2nn1C1CCCOC1 (racemic) [Example 32, (±)-5-{[4-(6-Hydroxypyridin-3-yl)phenyl]methyl}-2-(tetrahydro-2H-pyran-3-yl)-2,5-dihydro-3H-pyrazolo[4,3-c]pyrido[3,2-e]pyridazin-3-one] | 1.69 |
| O=c1c2nn(Cc3ccc(-n4cccn4)cc3)c3ccsc3c-2nn1C1CCCOC1 (racemic) [Example 37, (±)-5-{[4-(1H-Pyrazol-1-yl)phenyl]methyl}-2-(tetrahydro-2H-pyran-3-yl)-2,5-dihydro-3H-pyrazolo[4,3-c]thieno[2,3-e]pyridazin-3-one] | 0.096 |
| Cc1ccc(-c2ccc(Cn3nc4c(=O)n(C5CCCOC5)nc-4c4sccc43)cc2)cn1 (racemic) [Example 38, (±)-5-{[4-(6-Methylpyridin-3-yl)phenyl]methyl}-2-(tetrahydro-2H-pyran-3-yl)-2,5-dihydro-3H-pyrazolo[4,3-c]thieno[2,3-e]pyridazin-3-one] | 0.183 |
| Cc1cc(-c2ccc(Cn3nc4c(=O)n(C5CCCOC5)nc-4c4sccc43)cc2)ccn1 (racemic) [Example 39, (±)-5-{[4-(2-Methylpyridin-4-yl)phenyl]methyl}-2-(tetrahydro-2H-pyran-3-yl)-2,5-dihydro-3H-pyrazolo[4,3-c]thieno[2,3-e]pyridazin-3-one] | 0.12 |
| Cc1cccc(-n2nc3c4cccnc4n(Cc4ccc(-c5cnn(C)c5)nc4)nc-3c2=O)c1C [Example 1, 2-(2,3-Dimethylphenyl)-5-{[6-(1-methyl-1H-pyrazol-4-yl)pyridin-3-yl]methyl}-2,5-dihydro-3H-pyrazolo[4,3-c]pyrido[3,2-e]pyridazin-3-one] | 0.058 |
| Cc1cccc(-n2nc3c4cccnc4n(Cc4ccc(Cl)nc4)nc-3c2=O)c1C [Example 4, 5-[(6-Chloropyridin-3-yl)methyl]-2-(2,3-dimethylphenyl)-2,5-dihydro-3H-pyrazolo[4,3-c]pyrido[3,2-e]pyridazin-3-one] | 0.366 |
| Cc1ccc(-c2ccc(Cn3nc4c(=O)n(-c5cccc(C)c5C)nc-4c4cccnc43)cn2)cn1 [Example 5, 2-(2,3-Dimethylphenyl)-5-[(6′-methyl-2,3′-bipyridin-5-yl)methyl]-2,5-dihydro-3H-pyrazolo[4,3-c]pyrido[3,2-e]pyridazin-3-one] | 0.109 |
| Cc1ccc(-c2ccc(Cn3nc4c(=O)n(-c5cccc(C)c5F)nc-4c4cccnc43)cn2)cn1 [Example 6, 2-(2-Fluoro-3-methylphenyl)-5-[(6′-methyl-2,3′-bipyridin-5-yl)methyl]-2,5-dihydro-3H-pyrazolo[4,3-c]pyrido[3,2-e]pyridazin-3-one] | 0.036 |
| Cc1cncc(-c2ccc(Cn3nc4c(=O)n(C5CCCOC5)nc-4c4cccnc43)cc2)c1 (stereo not shown) [Example 13] | 0.578 |
| Cc1ccccc1-n1nc2c3sccc3n(Cc3ccc(-n4cccn4)cc3)nc-2c1=O [Example 33, 2-(2-Methylphenyl)-5-{[4-(1H-pyrazol-1-yl)phenyl]methyl}-2,5-dihydro-3H-pyrazolo[4,3-c]thieno[2,3-e]pyridazin-3-one] | 0.048 |
| Cc1c(-n2nc3c4sccc4n(Cc4ccc(-n5cccn5)cc4)nc-3c2=O)ccnc1F [Example 34] | 0.033 |
